Results reported in patent US6451576B1, “Sesquiterpene synthases from grand fir (Abies grandis), and methods of use” (Washington State University Research Foundation, priority 1998, dated 2002).

Columns and labels:
[1] = target: T1, γ-humulene synthase (SEQ ID No:24) (Abies grandis, UniProt O64405); assay: Kinetic parameters, metal ion requirement and substrate specificity of recombinant γ-humulene synthase; type: biochemical; conditions: for monoterpene product formed from geranyl diphosphate: GLC-MS; for Km: read-out: Km value for divalent metal ion
T1 construct: For further subcloning of the amplified, full-length cDNA into the pSBETa vector for high-level expression, the pGAG5 insert was amplified; made in house; host or cells: E. coli XL1-Blue/pGAG5 or E. coli BL21(DE3)/pSBAG5
T1 sequence (O64405 1-593): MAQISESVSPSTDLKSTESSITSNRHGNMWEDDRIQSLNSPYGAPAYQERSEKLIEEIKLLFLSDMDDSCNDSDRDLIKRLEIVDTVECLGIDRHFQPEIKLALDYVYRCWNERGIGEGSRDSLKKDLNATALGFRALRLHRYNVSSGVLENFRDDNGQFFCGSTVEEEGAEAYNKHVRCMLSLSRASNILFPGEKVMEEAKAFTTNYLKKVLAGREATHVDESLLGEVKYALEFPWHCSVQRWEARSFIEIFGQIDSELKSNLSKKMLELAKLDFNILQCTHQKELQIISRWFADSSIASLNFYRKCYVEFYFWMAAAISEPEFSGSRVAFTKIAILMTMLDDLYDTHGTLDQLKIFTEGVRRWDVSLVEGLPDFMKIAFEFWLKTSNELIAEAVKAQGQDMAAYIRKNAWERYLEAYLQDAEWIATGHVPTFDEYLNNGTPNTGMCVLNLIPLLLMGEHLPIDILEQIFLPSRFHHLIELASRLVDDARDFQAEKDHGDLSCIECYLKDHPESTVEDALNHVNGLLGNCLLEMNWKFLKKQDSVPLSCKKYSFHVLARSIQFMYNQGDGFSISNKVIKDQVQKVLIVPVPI
Procedure: (§1) The assay for recombinant sesquiterpene synthase (cyclase) activity was performed in 1 ml of buffer (extraction buffer without MnCl2 or the polymeric adsorbents) containing 3.5 μM [1-^3H]farnesyl diphosphate and the total protein extracted from a 5 ml bacterial culture to produce 10^5-10^6 dpm of product in 2 h at 31° C. The incubation mixture was overlaid with 1 ml pentane to trap volatile products. After incubation, the reaction mixture was extracted with pentane (3×1 ml) and the combined extract was passed through a MgSO4-silica gel column to provide the terpene hydrocarbon fractions as before. The columns were subsequently eluted with 3×1 ml of ether to collect any oxygenated products, and an aliquot of each fraction was taken for liquid scintillation counting to determine conversion rate. The monoterpene synthase and diterpene synthase activity assays were similarly performed as described in detail elsewhere (LaFever, R. E., et al., (1994) Arch. Biochem. Biophys. 313, 139-149; Bohlmann, J., et al., (1997) J. Biol. Chem. 272, 21784-21792; Lewinsohn, E., et al., (1991) Plant Physiol. 96, 38-43).
(§2) The substrate specificity and other kinetic. parameters of γ-humulene synthase (SEQ ID No:24) and δ-selinene synthase (SEQ ID No:20) were investigated in order to confirm the identification and classification of these enzymes. […] Neither of these sesquiterpene synthases requires K^+ or other monovalent cation for activity.
(§3) Substrate specificity of δ-selinene synthase (SEQ ID No:20) and γ-humulene synthase (SEQ ID No:24) was evaluated by comparing farnesyl diphosphate (C15) to geranyl diphosphate (C10) and geranylgeranyl diphosphate (C20) at saturation as precursors of the respective terpene olefins. […] The identities of the monoterpene products produced by the sesquiterpene synthases were determined by GLC-MS and are set forth in FIG. 4.

[2] = target: T2, δ-selinene synthase (SEQ ID No:20) (Abies grandis, UniProt O64404); assay: Kinetic parameters, metal ion requirement and substrate specificity of recombinant δ-selinene synthase; type: biochemical; conditions: for Km: read-out: Km value for divalent metal ion
T2 construct: made in house; host or cells: E. coli XL1-Blue/pGAG4 or E. coli BL21(DE3)/pSBAG4
T2 sequence (O64404 1-581): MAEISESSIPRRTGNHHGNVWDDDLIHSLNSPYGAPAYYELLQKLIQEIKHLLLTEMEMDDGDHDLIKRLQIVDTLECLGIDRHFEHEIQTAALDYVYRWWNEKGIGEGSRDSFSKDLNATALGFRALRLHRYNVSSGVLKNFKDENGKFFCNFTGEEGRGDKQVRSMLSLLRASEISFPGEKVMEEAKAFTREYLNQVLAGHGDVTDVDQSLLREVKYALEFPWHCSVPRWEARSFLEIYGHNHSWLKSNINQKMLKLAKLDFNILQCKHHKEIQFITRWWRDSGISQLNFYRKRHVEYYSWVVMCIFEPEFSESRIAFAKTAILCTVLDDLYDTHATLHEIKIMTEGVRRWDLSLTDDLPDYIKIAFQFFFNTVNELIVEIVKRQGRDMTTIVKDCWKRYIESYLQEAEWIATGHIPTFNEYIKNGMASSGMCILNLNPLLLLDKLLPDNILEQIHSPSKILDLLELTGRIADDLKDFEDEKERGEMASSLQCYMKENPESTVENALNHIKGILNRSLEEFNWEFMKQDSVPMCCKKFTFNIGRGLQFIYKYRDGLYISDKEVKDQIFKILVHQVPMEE
Procedure: as §1, §2, §3

insect larvae = conditions: present in paper made from trees of the genus Abies; cited from earlier work
[3] = tested on: partially purified inducible sesquiterpene synthases; assay: Sesquiterpene synthase assay with partially purified extract of wounded grand fir stems; type: biochemical, Abies grandis; conditions: partially purified inducible sesquiterpene synthases from wounded stems; read-out: Km value for [1-3H]farnesyl diphosphate
Source text: Grand fir saplings in active growth were used as the enzyme source for determination of constitutive terpenoid synthases and of terpenoid synthases which had been induced in wounded stems by a standard wounding protocol (Funk, C., et al., (1994) Plant Physiol. 106, 999-1005). Stems from control saplings and saplings eight days after wounding (usually ten saplings) were harvested by removing the top and lateral growth, and cutting at about 5 cm from the base. The stems were chopped into 5-7 cm segments, frozen in liquid N2 and, following removal of any needles, were ground to a powder in a liquid N2-chilled No. 1 Wiley mill. The frozen powder was added to chilled extraction buffer (5 ml/g fresh tissue weight) consisting of 10 mM dibasic potassium phosphate and 1.8 mM monobasic potassium phosphate (pH 7.3), 140 mM NaCl, 20 mM β-mercaptoethanol, 10 mM MgCl2, 5 mM MnCl2, 10% (v/v) glycerol and 1% (w/v) each of polyvinylpyrrolidone (Mr 40,000) and polyvinylpolypyrrolidone. […]
Liquid scintillation counting was performed in 10 ml toluene:ethanol (7:3, v/v) containing 0.4% (w/v) Omnifluor (DuPont-NEN) at a ^3H counting efficiency of 43%. Protein concentrations were determined by the method of Bradford (Bradford, M. M. (1976) Anal. Biochem. 72, 248-254) using the Bio-Rad reagent and bovine serum albumin as standard. […]

[4] = substrate: CC(C)=CCC/C(C)=C/CC/C(C)=C/CO[P@@](=O)(O)OP(=O)(O)O; assay: Kinetic parameters, metal ion requirement and substrate specificity of recombinant γ-humulene synthase; type: biochemical, Abies grandis; conditions: other: γ-humulene synthase; estimated; 31.0 °C
Procedure: as §1, with “The monoterpene synthase and diterpene synthase activity assays were similarly performed as described in detail elsewhere (LaFever, R. E., et al., (1994) Arch. Biochem. Biophys. 313, 139-149; Bohlmann, J., et al., (1997) J. Biol. Chem. 272, 21784-21792; Lewinsohn, E., et al., (1991) Plant Physiol. 96, 38-43).” left out
as §3

[5] = substrate: CC(C)=CCC/C(C)=C/CC/C(C)=C/CO[P@@](=O)(O)OP(=O)(O)O; assay: Kinetic parameters, metal ion requirement and substrate specificity of recombinant δ-selinene synthase; type: biochemical, Abies grandis; conditions: other: δ-selinene synthase; estimated; 31.0 °C
Procedure: as §1, with “The monoterpene synthase and diterpene synthase activity assays were similarly performed as described in detail elsewhere (LaFever, R. E., et al., (1994) Arch. Biochem. Biophys. 313, 139-149; Bohlmann, J., et al., (1997) J. Biol. Chem. 272, 21784-21792; Lewinsohn, E., et al., (1991) Plant Physiol. 96, 38-43).” left out
as §3

## C=C/C(C)=C/CC=C(C)C [E-ocimene]
[1]
  monoterpene product formed from geranyl diphosphate: not detectable
[2]; GLC-MS
  contribution to monoterpene products formed from geranyl diphosphate: 22.4%

## COC(=O)C1=CC[C@H]([C@H](C)CC(=O)CC(C)C)CC1 [Juvabione]
Insect larvae
  effect on maturation of insect larvae: inhibits maturation of insect larvae

## C=C(C)[C@H]1CC=C(C)CC1 [Limonene]
[1]
  monoterpene product formed from geranyl diphosphate: principal monoterpene product
[2]; GLC-MS
  monoterpene product formed from geranyl diphosphate: principal monoterpene product

## [Mg+2] [Mg^2+]
[1]
  metal ion utilization in the cyclization reaction: comparable velocities
  Km: ~125 µM
[2]
  Km: ~125 µM

## [Mn+2] [Mn^2+]
[1]
  metal ion utilization in the cyclization reaction: comparable velocities
  Km: ~25 µM
[2]
  maximum rate relative to that with Mg2+ at saturation: less than 10%
  Km: ~25 µM

## CC(C)=CCC/C(C)=C/CC/C(C)=C/CO[P@@](=O)(O)OP(=O)(O)O [[1-^3H]farnesyl diphosphate]
[3]
  Km: ~400 nM

## C=C1C2CCC(C2)C1(C)C (centres unmarked) [camphene]
[1]
  monoterpene product formed from geranyl diphosphate: detectable amounts
[2]; GLC-MS
  monoterpene product formed from geranyl diphosphate: does not produce

B1: γ-humulene synthase (SEQ ID No:24) (Abies grandis) (protein)
chain: MAQISESVSPSTDLKSTESSITSNRHGNMWEDDRIQSLNSPYGAPAYQERSEKLIEEIKLLFLSDMDDSCNDSDRDLIKRLEIVDTVECLGIDRHFQPEIKLALDYVYRCWNERGIGEGSRDSLKKDLNATALGFRALRLHRYNVSSGVLENFRDDNGQFFCGSTVEEEGAEAYNKHVRCMLSLSRASNILFPGEKVMEEAKAFTTNYLKKVLAGREATHVDESLLGEVKYALEFPWHCSVQRWEARSFIEIFGQIDSELKSNLSKKMLELAKLDFNILQCTHQKELQIISRWFADSSIASLNFYRKCYVEFYFWMAAAISEPEFSGSRVAFTKIAILMTMLDDLYDTHGTLDQLKIFTEGVRRWDVSLVEGLPDFMKIAFEFWLKTSNELIAEAVKAQGQDMAAYIRKNAWERYLEAYLQDAEWIATGHVPTFDEYLNNGTPNTGMCVLNLIPLLLMGEHLPIDILEQIFLPSRFHHLIELASRLVDDARDFQAEKDHGDLSCIECYLKDHPESTVEDALNHVNGLLGNCLLEMNWKFLKKQDSVPLSCKKYSFHVLARSIQFMYNQGDGFSISNKVIKDQVQKVLIVPVPI
notes: For further subcloning of the amplified, full-length cDNA into the pSBETa vector for high-level expression, the pGAG5 insert was amplified; made in house; host or cells: E. coli XL1-Blue/pGAG5 or E. coli BL21(DE3)/pSBAG5
[4]
  Km: 4.5 µM

B2: δ-selinene synthase (SEQ ID No:20) (Abies grandis) (protein)
chain: MAEISESSIPRRTGNHHGNVWDDDLIHSLNSPYGAPAYYELLQKLIQEIKHLLLTEMEMDDGDHDLIKRLQIVDTLECLGIDRHFEHEIQTAALDYVYRWWNEKGIGEGSRDSFSKDLNATALGFRALRLHRYNVSSGVLKNFKDENGKFFCNFTGEEGRGDKQVRSMLSLLRASEISFPGEKVMEEAKAFTREYLNQVLAGHGDVTDVDQSLLREVKYALEFPWHCSVPRWEARSFLEIYGHNHSWLKSNINQKMLKLAKLDFNILQCKHHKEIQFITRWWRDSGISQLNFYRKRHVEYYSWVVMCIFEPEFSESRIAFAKTAILCTVLDDLYDTHATLHEIKIMTEGVRRWDLSLTDDLPDYIKIAFQFFFNTVNELIVEIVKRQGRDMTTIVKDCWKRYIESYLQEAEWIATGHIPTFNEYIKNGMASSGMCILNLNPLLLLDKLLPDNILEQIHSPSKILDLLELTGRIADDLKDFEDEKERGEMASSLQCYMKENPESTVENALNHIKGILNRSLEEFNWEFMKQDSVPMCCKKFTFNIGRGLQFIYKYRDGLYISDKEVKDQIFKILVHQVPMEE
notes: made in house; host or cells: E. coli XL1-Blue/pGAG4 or E. coli BL21(DE3)/pSBAG4
[5]
  Km: 1.5 µM
